Assay [1] concerns the target T1, PDK1 (Homo sapiens, UniProt O15530).
T1 construct: endogenous in cells; host or cells: PC3 cells
T1 sequence (O15530 1-556): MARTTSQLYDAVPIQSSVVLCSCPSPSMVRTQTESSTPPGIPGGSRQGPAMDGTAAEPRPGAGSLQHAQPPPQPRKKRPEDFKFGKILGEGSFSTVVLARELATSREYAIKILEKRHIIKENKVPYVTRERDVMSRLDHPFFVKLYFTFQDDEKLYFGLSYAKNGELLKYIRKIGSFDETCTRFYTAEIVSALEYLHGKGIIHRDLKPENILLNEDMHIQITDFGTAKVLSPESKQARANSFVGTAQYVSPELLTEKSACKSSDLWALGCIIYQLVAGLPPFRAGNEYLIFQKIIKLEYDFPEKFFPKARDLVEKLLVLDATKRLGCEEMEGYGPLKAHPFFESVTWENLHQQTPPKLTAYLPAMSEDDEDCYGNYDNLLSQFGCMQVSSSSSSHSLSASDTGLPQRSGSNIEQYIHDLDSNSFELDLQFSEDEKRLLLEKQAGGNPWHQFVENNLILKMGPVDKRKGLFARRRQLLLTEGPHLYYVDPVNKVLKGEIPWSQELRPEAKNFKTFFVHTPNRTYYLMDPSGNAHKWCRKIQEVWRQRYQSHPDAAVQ
The assay is described as follows: Cellular testing of PDK1 kinase inhibitors in PC3 cells (Luminex, phospho-T308-PKB). Type of assay: cell-based. As to conditions: 30 min, serum-free. On the procedure: Method for the Cellular Testing of PDK1 Kinase Inhibitors in PC3 Cells.
The cellular assay for the determination of the PDK1 kinase activity is carried out as a Luminex assay in the 96-well format. PC3 cells are sown at 20,000 cells per well in 100 μl of medium (45% of […]/45% of Ham's F12/10% of FCS) and incubated on the following day for 30 min with a serial dilution of the test substance (7 concentrations) under serum-free conditions. The cells are subsequently lysed using 90 μl of lysis buffer (20 mM tris/HCl pH 8.0, 150 mM NaCl, 1% of NP40, 10% of glycerol, 1% of phosphatase inhibitor I, 1% of phosphatase inhibitor II, 0.1% of protease inhibitor cocktail III, 0.01% of benzonase) per well, and the lysates are separated off from insoluble cell constituents by means of centrifugation through a 96-well filter plate (0.65 μm). The lysates are incubated overnight at 4° C. with shaking with Luminex beads to which an anti-total PKB antibody is coupled. The detection is carried out on the following day by addition of a phospho-T308-PKB antibody and a species-specific […] secondary antibody. The detection of phospho T308-PKB is carried out by measurement in a Luminex100 instrument by determination of 100 events per cavity in a measurement time of 60 sec. As pharmacological blank, the signals obtained from cells which have been treated with 10 μM staurosporin are subtracted from all other batches. The control value used for maximum phosphorylation of PKB on T308 are the signals from cells which have only been treated with the solvent (0.3% of DMSO). The values of the batches treated with test substance are calculated therefrom as percentage of control, and IC50 values are determined by means of RS 1.

The target of assay [2] is T2, PDK1 (Homo sapiens, UniProt O15530).
T2 construct: His6 (N)
T2 sequence (O15530 51-556 limits assumed): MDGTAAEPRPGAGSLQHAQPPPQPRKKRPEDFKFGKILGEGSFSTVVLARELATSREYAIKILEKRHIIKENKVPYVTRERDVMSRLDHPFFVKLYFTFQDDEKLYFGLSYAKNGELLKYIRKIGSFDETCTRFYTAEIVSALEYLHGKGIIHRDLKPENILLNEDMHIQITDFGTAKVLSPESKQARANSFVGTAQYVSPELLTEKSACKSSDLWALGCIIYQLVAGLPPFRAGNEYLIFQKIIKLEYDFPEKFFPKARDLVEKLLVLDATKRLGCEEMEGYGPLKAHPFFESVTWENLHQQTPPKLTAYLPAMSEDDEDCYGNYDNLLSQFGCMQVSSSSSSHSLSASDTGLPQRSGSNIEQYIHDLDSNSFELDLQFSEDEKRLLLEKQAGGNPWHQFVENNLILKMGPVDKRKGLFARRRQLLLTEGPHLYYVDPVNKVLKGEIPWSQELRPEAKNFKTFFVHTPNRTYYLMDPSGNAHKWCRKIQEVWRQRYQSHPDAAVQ
Description: Test for the inhibition of PDK1 (flashplate, 33P-ATP). As to conditions: His6-PDK1 (1-50) 3.4 nM, 4 μM ATP, 30° C., 60 min; read-out: IC50 [PDK1] biochemical. As to the method:
The experimental batches are carried out in a flashplate system with 384 wells/microtitration plate.
In each case, the PDK1 sample His6-PDK1 (1-50) (3.4 nM), the PDK1 substrate biotin-bA-bA-[…] (400 nM), 4 μM ATP (with 0.2μ Ci of ^33P-ATP/well) and the test substance in 50 μl of conventional experimental solution per well are incubated at 30° C. for 60 min. The test substances are employed in corresponding concentrations (if desired in a dilution series). The control is carried out without test substance. The reaction is stopped using standard methods and washed. The activity of the kinase is measured via the incorporated radioactivity in top count. In order to determine the non-specific kinase reaction (blank value), the experimental batches are carried out in the presence of 100 nM staurosporin.
The radioactivity (decompositions per minute) of the blank value (no use of test substance in the presence of staurosporin) is subtracted from all other radioactivity values. The controls (kinase activity without test substance) are set equal to 100 percent and all other radioactivity values (after subtracting the blank value) are expressed set in relation thereto (for example in % of the control).
IC50 values (50% inhibition) are determined with the aid of statistics programmes, such as, for example, RS1.

As to `Cn1cc(-c2cnc3[nH]cc(-c4cc(C(O)c5ccccc5)nn4CCO)c3c2)cn1` (stereo not drawn) [A107], the values for the IC50 in assay [1] and in assay [2] were 1000 to 10000 nM and 0.5 to 1000 nM, respectively.

In the case of `Cn1cc(-c2cnc3[nH]cc(-c4nnc(C(C)(O)c5ccccc5Cl)o4)c3c2)cn1` (stereo not drawn) [A132, I-(2-chlorophenyl)-1-{5-[5-(1-methyl-1H-pyrazol-4-yl)-1H-pyrrolo[2,3-b]pyridin-3-yl]-1,3,4-oxadiazol-2-yl}ethanol], the IC50 (commonly the concentration needed to halve the response being measured) in assay [1] lay in the range of 1000 to 10000 nM; in assay [2] it was 0.5 to 1000 nM.

Take `Cn1cc(-c2cnc3[nH]cc(-c4nc(C(C)(O)c5cccc(Cl)c5)no4)c3c2)cn1` (stereo not drawn) [A80]: the IC50 in assay [1] and in assay [2] was 0.5 to 1000 nM each time.

For `Cn1cc(-c2cnc3[nH]cc(-c4nnc([C@@H](O)c5ccccc5Cl)o4)c3c2)cn1` (single isomer, unassigned) [A130], the half-inhibitory concentration (IC50) in assay [1] and in assay [2] was 0.5 to 1000 nM in each case.

`Cn1cc(-c2cnc3[nH]cc(-c4nnc([C@@H](N)c5ccccc5Cl)o4)c3c2)cn1` [A113]: the IC50 lay in the range of 1000 to 10000 nM in assay [1] and 0.5 to 1000 nM in assay [2].

In turn, `Cn1cc(-c2cnc3[nH]cc(-c4noc(C(=O)c5ccccc5)n4)c3c2)cn1` [A27] registered a half-inhibitory concentration (IC50) in assay [1] of 1000 to 10000 nM.

Turning to `Cn1cc(-c2cnc3[nH]cc(-c4csc(Cc5ccccc5)n4)c3c2)cn1` [A2, 3-(2-benzyl-thiazol-4-yl)-5-(1-methyl-1H-pyrazol-4-yl)-1H-pyrrolo[2,3-b]pyridine], in assay [1], the concentration for half-maximal inhibition (IC50) was 1000 to 10000 nM.

Consider `Cn1cc(-c2cnc3[nH]cc(-c4cc(C(O)(c5ccccc5)C5CCOCC5)on4)c3c2)cn1` (stereo not drawn) [A103], for which the IC50 in assay [2] was 0.5 to 1000 nM.

For `Cn1cc(-c2cnc3[nH]cc(-c4cc(C(O)c5ccccc5)nn4CCO)c3c2)cn1` (stereo not drawn) [A106], the IC50 in assay [2] was 1000 to 10000 nM.

In assay [1], `Cn1cc(-c2cnc3[nH]cc(-c4csc(Cc5cccc(F)c5)n4)c3c2)cn1` [A7] displayed an IC50 of 1000 to 10000 nM.

As for `Cn1cc(-c2cnc3[nH]cc(-c4n[nH]c(C(O)c5ccccc5)n4)c3c2)cn1` (stereo not drawn) [A30], the IC50 in assay [2] was 0.5 to 1000 nM.

For the molecule `Cn1cc(-c2cnc3[nH]cc(-c4cc(C(C)(O)c5ccnnc5)on4)c3c2)cn1` (stereo not drawn) [A98, 1-{3-[5-(1-methyl-1H-pyrazol-4-yl)-1H-pyrrolo[2,3-b]pyridin-3-yl]isoxazol-5-yl}-1-pyridazin-4-ylethanol], in assay [2], the IC50 lay in the range of 0.5 to 1000 nM.

As for `Cn1cc(-c2cnc3[nH]cc(-c4cc([C@](C)(O)c5ccccc5F)on4)c3c2)cn1` (single isomer, unassigned) [A56], the IC50 in assay [2] lay within 0.5 to 1000 nM.

Turning to `CCN(CC)Cc1cc(-c2c[nH]c3ncc(-c4cnn(C)c4)cc23)no1` [A104], the IC50 in assay [2] lay within 0.5 to 1000 nM.

In the case of `Cc1sc(Cc2ccccc2)nc1-c1c[nH]c2ncc(-c3cnn(C)c3)cc12` [A3], the IC50 in assay [1] lay within 1000 to 10000 nM.

For the molecule `Cn1cc(-c2cnc3[nH]cc(-c4nnc([C@@H](N)c5ccccc5)o4)c3c2)cn1` [A109, C—((S)—C-{5-[5-(1-methyl-1H-pyrazol-4-yl)-1H-pyrrolo[2,3-b]-pyridin-3-yl]-1,3,4-oxadiazol-2-yl}-C-phenyl)methylamine], the IC50 in assay [2] is 0.5 to 1000 nM.

`Cn1cc(-c2cnc3[nH]cc(-c4nnc(C(N)c5cccnc5)o4)c3c2)cn1` (stereo not drawn) [A115]: the IC50 in assay [2] is 1000 to 10000 nM.

As to `Cn1cc(-c2cnc3[nH]cc(-c4cc(C(O)(c5ccccc5)C5CCOCC5)no4)c3c2)cn1` (stereo not drawn) [A102], the IC50 in assay [2] fell in the range of 0.5 to 1000 nM.

For the molecule `Cn1cc(-c2cnc3[nH]cc(-c4nnc(C5(c6ccnc(O)c6)CC5)o4)c3c2)cn1` [A111], the IC50 in assay [2] was in the range of 0.5 to 1000 nM.

In the case of `Cn1cc(-c2cnc3[nH]cc(-c4cc(C(O)(c5ccccc5)C5CCOCC5)[nH]n4)c3c2)cn1` (stereo not drawn) [A101, {5-[5-(1-methyl-1H-pyrazol-4-yl)-1H-pyrrolo[2,3-b]pyridin-3-yl]-2H-pyrazol-3-yl}phenyl(tetrahydropyran-4-yl)methanol], in assay [2], the IC50 lay within 0.5 to 1000 nM.

On to `Cn1cc(-c2cnc3[nH]cc(-c4nc(C5(c6ccccc6Cl)CC5)no4)c3c2)cn1` [A119], for which the IC50 in assay [1] fell in the range of 1000 to 10000 nM.

Take `Cn1cc(-c2cnc3[nH]cc(-c4cc(C(C)(O)c5ccccc5)n(C)n4)c3c2)cn1` (stereo not drawn) [A76]: the IC50 in assay [2] is 1000 to 10000 nM.

For `Cn1cc(-c2cnc3[nH]cc(-c4nnc([C@H](O)c5ccccc5Cl)o4)c3c2)cn1` (single isomer, unassigned) [A131], the IC50 in assay [2] lay in the range of 0.5 to 1000 nM.

For the molecule `Cn1cc(-c2cnc3[nH]cc(-c4nnc(C(O)c5ccc(C(=O)NC6CCCCC6)cc5Cl)o4)c3c2)cn1` (stereo not drawn) [A129, 3-chloro-N-cyclohexyl-4-(hydroxy-{5-[5-(1-methyl-1H-pyrazol-4-yl)-1H-pyrrolo[2,3-b]pyridin-3-yl]-1,3,4-oxadiazol-2-yl}methyl)benzamide], the IC50 in assay [1] lay within 1000 to 10000 nM.

As for `Cn1cc(-c2cnc3[nH]cc(-c4noc(Cc5cccc(F)c5)n4)c3c2)cn1` [A8, 3-[5-(3-fluorobenzyl)-1,2,4-oxadiazol-3-yl]-5-(1-methyl-1H-pyrazol-4-yl)-1H-pyrrolo[2,3-b]pyridine], in assay [2], the IC50 is 1000 to 10000 nM.

`CCC(N)(c1ccccc1)c1nnc(-c2c[nH]c3ncc(-c4cnn(C)c4)cc23)o1` (stereo not drawn) [A114]: the IC50 in assay [2] was in the range of 1000 to 10000 nM.

`CC[C@](O)(c1cc(-c2c[nH]c3ncc(-c4cnn(C)c4)cc23)no1)c1ccccc1F` (single isomer, unassigned) [A92]: in assay [2], the IC50 fell in the range of 0.5 to 1000 nM.

With `CC[C@@](O)(c1cc(-c2c[nH]c3ncc(-c4cnn(C)c4)cc23)no1)c1ccccc1F` (single isomer, unassigned) [A93], in assay [2], the IC50 is 0.5 to 1000 nM.

For `COC(C)(c1ccccc1)c1cc(-c2c[nH]c3ncc(-c4cnn(C)c4)cc23)nn1C` (stereo not drawn) [A73], in assay [2], the half-maximal inhibitory concentration (IC50) was in the range of 1000 to 10000 nM.

In the case of `Cn1cc(-c2cnc3[nH]cc(-c4nnc([C@H](N)c5ccccc5)o4)c3c2)cn1` [A108, C—((R)—C-{5-[5-(1-methyl-1H-pyrazol-4-yl)-1H-pyrrolo[2,3-b]pyridin-3-yl]-1,3,4-oxadiazol-2-yl}-C-phenyl)methylamine], in assay [2], the IC50 was in the range of 0.5 to 1000 nM.

`CCOC(c1ccccc1)c1cc(-c2c[nH]c3ncc(-c4cnn(C)c4)cc23)n[nH]1` (stereo not drawn) [A90]: in assay [2], the 50% inhibitory concentration (IC50) lay in the range of 0.5 to 1000 nM.

On to `Cn1cc(-c2cnc3[nH]cc(-c4noc(Cc5ccccc5F)n4)c3c2)cn1` [A13], for which the IC50 in assay [2] was in the range of 1000 to 10000 nM.

In the case of `Cn1cc(-c2cnc3[nH]cc(-c4noc(Cc5ccccc5)n4)c3c2)cn1` [A26], the IC50 in assay [2] fell in the range of 1000 to 10000 nM.

In the case of `Cn1cc(-c2cnc3[nH]cc(-c4nnc(C(C)(C)c5ccnnc5)o4)c3c2)cn1` [A121, 5-(1-methyl-1H-pyrazol-4-yl)-3-[5-(1-methyl-1-pyridazin-4-ylethyl)-1,3,4-oxadiazol-2-yl]-1H-pyrrolo[2,3-b]pyridine], the IC50 in assay [2] was in the range of 1000 to 10000 nM.

These data come from patent publication US20130245355A1, “3-HETARYL-SUBSTITUTED PYRROLO[2,3 B]PYRIDINE DERIVATIVES AS PDK1 INHIBITORS” (MERCK PATENT GMBH, priority 2010, published 2013).
